Measured values taken from ChEMBL document CHEMBL5370592, “Synthesis and Structure-Activity Relationships of a New Class of Oxadiazoles Targeting DprE1 as Antitubercular Agents” (ACS Med Chem Lett, 2023).
≈ marks a conversion by molar mass, not a printed value. Calls of active or inactive are those of the source. The calls are words filed in the database; no cut-off is given here.

Tests used:
[1] = test system: Mycobacterium tuberculosis; assay: Antitubercular activity against Mycobacterium tuberculosis Erdman assessed as inhibition of bacterial growth incubated for 2 weeks; assay type: functional; conditions: 336 h
[2] = test system: Mycobacterium tuberculosis; assay: Antitubercular activity against Mycobacterium tuberculosis K10b00DS assessed as inhibition of bacterial growth incubated for 2 weeks; assay type: functional; conditions: 336 h
[3] = test system: Mycobacterium tuberculosis; assay: Antitubercular activity against Mycobacterium tuberculosis K09b00DS assessed as inhibition of bacterial growth incubated for 2 weeks; assay type: functional; conditions: 336 h
[4] = test system: Mycobacterium tuberculosis; assay: Antitubercular activity against Mycobacterium tuberculosis clinical strain K5072429 assessed as inhibition of bacterial growth incubated for 2 weeks; assay type: functional; conditions: K5072429, 336 h
[5] = test system: Mycobacterium tuberculosis; assay: Antitubercular activity against Mycobacterium tuberculosis NIH_G12 assessed as inhibition of bacterial growth incubated for 2 weeks; assay type: functional; conditions: NIH_G12, 336 h
[6] = test system: Mycobacterium tuberculosis; assay: Antitubercular activity against Mycobacterium tuberculosis K15b00DS assessed as inhibition of bacterial growth incubated for 2 weeks; assay type: functional; conditions: 336 h
[7] = test system: Mycobacterium tuberculosis; assay: Antitubercular activity against Mycobacterium tuberculosis K13b00DS assessed as inhibition of bacterial growth incubated for 2 weeks; assay type: functional; conditions: 336 h
[8] = test system: Mycobacterium tuberculosis; assay: Antitubercular activity against Mycobacterium tuberculosis K14b00DS assessed as inhibition of bacterial growth incubated for 2 weeks; assay type: functional; conditions: 336 h
[9] = test system: Mycobacterium tuberculosis; assay: Antitubercular activity against Mycobacterium tuberculosis K11b00DS assessed as inhibition of bacterial growth incubated for 2 weeks; assay type: functional; conditions: 336 h
[10] = test system: Mycobacterium tuberculosis; assay: Antitubercular activity against Mycobacterium tuberculosis HN878 assessed as inhibition of bacterial growth incubated for 2 weeks; assay type: functional; conditions: HN878, 336 h
[11] = test system: Mycobacterium tuberculosis; assay: Antitubercular activity against Mycobacterium tuberculosis K04b00DS assessed as inhibition of bacterial growth incubated for 2 weeks; assay type: functional; conditions: 336 h
[12] = test system: Mycobacterium tuberculosis; assay: Antitubercular activity against Mycobacterium tuberculosis CDC1551 assessed as inhibition of bacterial growth incubated for 2 weeks; assay type: functional; conditions: CDC1551, 336 h
[13] = test system: Mycobacterium tuberculosis; assay: Antitubercular activity against Mycobacterium tuberculosis K16b00DS assessed as inhibition of bacterial growth incubated for 2 weeks; assay type: functional; conditions: 336 h
[14] = test system: Mycobacterium tuberculosis; assay: Antitubercular activity against Mycobacterium tuberculosis K05b00DS assessed as inhibition of bacterial growth incubated for 2 weeks; assay type: functional; conditions: 336 h
[15] = test system: Mycobacterium tuberculosis; assay: Antitubercular activity against Mycobacterium tuberculosis K12b00DS assessed as inhibition of bacterial growth incubated for 2 weeks; assay type: functional; conditions: 336 h
[16] = test system: Mycobacterium tuberculosis; assay: Antitubercular activity against Mycobacterium tuberculosis K35b00DS assessed as inhibition of bacterial growth incubated for 2 weeks; assay type: functional; conditions: 336 h
[17] = test system: Mycobacterium tuberculosis; assay: Antitubercular activity against Mycobacterium tuberculosis K07b00DS assessed as inhibition of bacterial growth incubated for 2 weeks; assay type: functional; conditions: 336 h
[18] = test system: Mycobacterium tuberculosis; assay: Antitubercular activity against Mycobacterium tuberculosis H37Rv ATCC 27294 assessed as inhibition of bacterial growth incubated for 2 weeks; assay type: functional; conditions: H37Rv ATCC 27294, 336 h
[19] = test system: Mycobacterium tuberculosis; assay: Antitubercular activity against Mycobacterium tuberculosis K17b00DS assessed as inhibition of bacterial growth incubated for 2 weeks; assay type: functional; conditions: 336 h
[20] = test system: Mycobacterium tuberculosis; assay: Induction of DNA damage in Mycobacterium tuberculosis H37Rv transfected with PrecA-LUX reporter assessed as induction of recA reporter gene expression incubated for 12 days by bioluminescence analysis; assay type: functional, organism-based; conditions: time 12.0 day
[21] = test system: Mycobacterium tuberculosis; assay: Antitubercular activity against Mycobacterium tuberculosis H37Rv ATCC 27294 assessed as inhibition of bacterial growth cultured in Middlebrook 7H9/BSA/Tyloxapol with glucose medium for 2 weeks; assay type: functional; conditions: H37Rv ATCC 27294, 336 h
[22] = test system: Mycobacterium tuberculosis; assay: Antitubercular activity against Mycobacterium tuberculosis H37Rv ATCC 27294 assessed as inhibition of bacterial growth cultured in Middlebrook 7H9/DPPC/cholesterol/BSA/Tyloxapol medium for 2 weeks; assay type: functional; conditions: H37Rv ATCC 27294, 336 h
[23] = test system: Mycobacterium tuberculosis; assay: Antitubercular activity against Mycobacterium tuberculosis H37RV ATCC 27294 assessed as inhibition of bacterial growth cultured in Middlebrook 7H9/cholesterol/BSA/Tyloxapol medium for 2 weeks; assay type: functional; conditions: H37Rv ATCC 27294, 336 h
[24] = test system: Mycobacterium tuberculosis; assay: Antitubercular activity against Mycobacterium tuberculosis infected in mouse J774 cells assessed as decrease in colony forming unit enumeration on solid medium at 5XMIC measured after 7 days; assay type: functional, organism-based; conditions: time 7.0 day
[25] = test system: Mycobacterium tuberculosis; assay: Antitubercular activity against Mycobacterium tuberculosis H37Rv ATCC 27294 assessed as inhibition of bacterial growth cultured in Middlebrook 7H9/ADC/Tween 80 with cydC::aph medium for 2 weeks; assay type: functional; conditions: H37Rv ATCC 27294, 336 h
[26] = test system: Mycobacterium tuberculosis; assay: Antitubercular activity against Mycobacterium tuberculosis H37Rv ATCC 27294 assessed as inhibition of bacterial growth cultured in Middlebrook 7H9/glucose/casitone/tyloxapol medium for 2 weeks; assay type: functional; conditions: H37Rv ATCC 27294, 336 h
[27] = Cytotoxicity against human HepG2 cells assessed as reduction in cell viability incubated for 24 hrs in DMEM/10% FBS supplemented with galactose by CellTiter-Glo luminescent assay; assay type: toxicity, cell-based
[28] = test system: Mycobacterium tuberculosis; assay: Induction of DNA damage in Mycobacterium tuberculosis H37Rv transfected with PradA-LUX reporter assessed as induction of radA reporter gene expression incubated for 12 days by bioluminescence analysis; assay type: functional, organism-based; conditions: time 12.0 day
[29] = test system: Mycobacterium tuberculosis; assay: Antitubercular activity against Mycobacterium tuberculosis H37Rv ATCC 27294 assessed as inhibition of bacterial growth cultured in Middlebrook 7H9/ADC/Tween 80 medium for 2 weeks; assay type: functional; conditions: H37Rv ATCC 27294, 336 h
[30] = target: T1, Decaprenylphosphoryl-beta-D-ribose oxidase (Mycobacterium tuberculosis (strain ATCC 25618 / H37Rv)) (UniProt P9WJF1); assay: Inhibition of DprE1-mediated cell wall synthesis in Mycobacterium tuberculosis H37Rv transfected with PiniB-LUX reporter assessed as induction of reporter gene expression incubated for 12 days by bioluminescence analysis; conditions: time 12.0 day
T1 sequence (whole entry): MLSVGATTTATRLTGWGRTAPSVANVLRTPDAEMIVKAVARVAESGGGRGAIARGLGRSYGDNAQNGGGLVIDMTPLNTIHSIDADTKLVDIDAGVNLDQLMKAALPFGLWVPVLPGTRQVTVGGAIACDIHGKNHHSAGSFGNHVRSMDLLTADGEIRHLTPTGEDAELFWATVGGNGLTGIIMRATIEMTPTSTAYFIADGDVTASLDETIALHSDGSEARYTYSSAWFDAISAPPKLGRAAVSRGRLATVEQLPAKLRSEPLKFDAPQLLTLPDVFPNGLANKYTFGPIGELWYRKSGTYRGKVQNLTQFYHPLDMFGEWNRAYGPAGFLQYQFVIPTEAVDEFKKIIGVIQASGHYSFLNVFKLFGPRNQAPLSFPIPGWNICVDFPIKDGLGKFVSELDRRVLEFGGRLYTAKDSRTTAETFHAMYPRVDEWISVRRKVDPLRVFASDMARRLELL

[31] = Cytotoxicity against human HepG2 cells assessed as reduction in cell viability incubated for 24 hrs in DMEM/10% FBS supplemented with glucose by CellTiter-Glo luminescent assay; assay type: toxicity, cell-based

| Compound | MIC [1] [µM] | MIC [2] [µM] | MIC [3] [µM] | MIC [4] [µM] | MIC [5] [µM] | MIC [6] [µM] | MIC [7] [µM] | MIC [8] [µM] | MIC [9] [µM] | MIC [10] [µM] | MIC [11] [µM] | MIC [12] [µM] | MIC [13] [µM] | MIC [14] [µM] | MIC [15] [µM] | MIC [16] [µM] | MIC [17] [µM] | MIC [18] [µM] | MIC [19] [µM] | other results |
| --- | --- | --- | --- | --- | --- | --- | --- | --- | --- | --- | --- | --- | --- | --- | --- | --- | --- | --- | --- | --- |
| COc1nc2ccc(Br)cc2cc1[C@@H](c1ccccc1)[C@@](O)(CCN(C)C)c1cccc2ccccc12 [BEDAQUILINE] | 0.1 (≈ 0.0556 µg/mL) | 0.1 (≈ 0.0556 µg/mL) | 0.2 (≈ 0.111 µg/mL) | 0.2 (≈ 0.111 µg/mL) | 0.05 (≈ 0.0278 µg/mL) | 0.07 (≈ 0.0389 µg/mL) | 0.1 (≈ 0.0556 µg/mL) | 0.6 (≈ 0.333 µg/mL) | 0.3 (≈ 0.167 µg/mL) | 0.05 (≈ 0.0278 µg/mL) | 0.04 (≈ 0.0222 µg/mL) | 0.07 (≈ 0.0389 µg/mL) | 0.1 (≈ 0.0556 µg/mL) | 0.05 (≈ 0.0278 µg/mL) | 0.04 (≈ 0.0222 µg/mL) | 0.07 (≈ 0.0389 µg/mL) | 0.15 (≈ 0.0833 µg/mL) | 0.15 (≈ 0.0833 µg/mL) | 0.07 (≈ 0.0389 µg/mL) |  |
| O=C(C1CCN(c2nnc(-c3ccccc3)o2)CC1)N1CCC(Cc2ccccc2)CC1 | 0.39 (≈ 0.168 µg/mL) | 1.2 (≈ 0.517 µg/mL) | 1.2 (≈ 0.517 µg/mL) | 2.3 (≈ 0.99 µg/mL) | 0.78 (≈ 0.336 µg/mL) | 0.78 (≈ 0.336 µg/mL) | 1.2 (≈ 0.517 µg/mL) | 1.2 (≈ 0.517 µg/mL) | 1.56 (≈ 0.672 µg/mL) | 0.78 (≈ 0.336 µg/mL) | 0.78 (≈ 0.336 µg/mL) | 0.6 (≈ 0.258 µg/mL) | 0.78 (≈ 0.336 µg/mL) | 1.2 (≈ 0.517 µg/mL) | 1.56 (≈ 0.672 µg/mL) | 1.2 (≈ 0.517 µg/mL) | 1.2 (≈ 0.517 µg/mL) | 0.6 (≈ 0.258 µg/mL) | 0.78 (≈ 0.336 µg/mL) | Activity [20]: inactive; MIC [21]: 0.78 µM (≈ 0.336 µg/mL); MIC [22]: 0.6 µM (≈ 0.258 µg/mL); MIC [23]: 0.78 µM (≈ 0.336 µg/mL); Activity [24]: Active; MIC [25]: 0.6 µM (≈ 0.258 µg/mL); MIC [26]: 0.1 µM (≈ 0.0431 µg/mL); IC50 at 24 h [27]: 37.5 µM; Activity [28]: inactive; MIC [29]: 0.78 µM (≈ 0.336 µg/mL); inhibition [30]: Active; IC50 at 24 h [31]: > 50 µM |
